Reference: PubChem BioAssay AID485301 (The Scripps Research Institute Molecular Screening Center, 2010)
Activity calls are given as the source filed them.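 Rule for the calls: active = IC50 of 10 µM or less against the helicase of at least one HCV strain tested; inactive = the rest.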

How the values were obtained:
Assay in all cases: HCV NS3 helicase unwinding inhibitors, late-stage follow-up, selectivity assay, biochemical, real-time fluorescence, genotypes 1b J4, 1b con1, 2a JFH1 (AID 485301)
Details in all cases: Cy5 molecular beacon fluorescence
[1] = biological target: NS3h 1b (J4)
[2] = biological target: NS3h 1b (con1)
[3] = biological target: NS3h 2a (JFH1)

| SMILES | IC50 [1] | IC50 [2] | IC50 [3] |
| --- | --- | --- | --- |
| CCOc1cccc(C2C(C(=O)c3ccc(C)o3)=C(O)C(=O)N2Cc2ccccc2)c1 (stereo not drawn) | > 500 µM (inactive) | > 500 µM (inactive) | > 500 µM (inactive) |
| Cc1cc(N2C(=O)C(O)=C(C(=O)c3ccc(C)o3)C2c2ccc(OCc3ccccc3)cc2)no1 (stereo not drawn) | > 500 µM (inactive) | > 500 µM (inactive) | > 500 µM (inactive) |
| CCCCCOc1ccc(C2C(C(=O)c3ccc(C)o3)=C(O)C(=O)N2c2cc(C)on2)cc1 (stereo not drawn) | > 500 µM (inactive) | > 500 µM (inactive) | > 500 µM (inactive) |
| COc1ccc(/C=N/NC(=O)c2cc(O)c(O)c(O)c2)cc1COc1ccc(C(=O)OCC(C)C)cc1 | > 500 µM (inactive) | > 500 µM (inactive) |  |
| COc1cc(C2C(C(=O)c3ccc(C)o3)=C(O)C(=O)N2c2cc(C)on2)ccc1OCc1ccccc1 (stereo not drawn) | > 500 µM (inactive) | > 500 µM (inactive) | > 500 µM (inactive) |
| COc1cccc(-n2c(SCc3cc(=O)oc4cc(O)c(O)cc34)nc3ccccc3c2=O)c1 | > 500 µM (inactive) | > 500 µM (inactive) | > 500 µM (inactive) |
| Cc1ccc(C(=O)C2=C(O)C(=O)N(Cc3ccco3)C2c2cccc(Cl)c2)o1 (stereo not drawn) | > 500 µM (inactive) | > 500 µM (inactive) | > 500 µM (inactive) |
| COc1ccc(C=NNC(=O)c2cc(O)c(O)c(O)c2)cc1COc1ccc(C(=O)OCC(C)C)cc1 | > 500 µM (inactive) | > 500 µM (inactive) | > 500 µM (inactive) |
